Assay results taken from US7626044B2, “Triptolide derivatives and their uses” (priority 2002, dated 2009).
“And” between values parts separate entries of the source, which are not always exact repeats. Identical values can stand only once.

Legend:
lymphocyte = assay: MTT cytotoxic assay; type: cell-based, mouse; conditions: mouse spleen cells, 48 hours, MTT
Procedure: Mice were sacrificed by cervical dislocation, and spleens were collected under sterile conditions then teased through a nylon mesh. Erythrocytes were lysed. Cells were washed and resuspended at 5×10^6/ml in RPMI-1640 media supplemented with 10% FBS.
For one 96 well plate assay, 90 μl of cells, 45 μl of sample and 45 μl of RPMI-1640 media with 10% FBS were added into each well with the final volume 180 μl. The negative control wells (containing 90 μl of RPMI-1640 media with 10% FBS and 90 pt of cells), blank control (180 μl of RPMI-1640 media with 10% FBS) were also performed. Incubate plate for 48 hours at 37° C., 5% CO2 in a humidified incubator. 18 μl of MTT solution (5 mg/ml) was added for 6-7 h.
90 μl of MTT lysis solution was added to each well followed by a further incubation at 37° C. for 6-7 h. And the absorbance was measured at 570 nm using a plate reader.

[1] = test system: A-549 (human lung carcinoma); assay: Tumor cell proliferation, A-549; type: cell-based; conditions: read-out: Inhibitory effect on tumor cell proliferation IC50
[2] = test system: C57BL/6 skin allograft on BALB/c mice; assay: Murine skin allograft transplantation; type: in vivo, mouse; conditions: C57BL/6 skin to BALB/c mice; daily i.p.; preliminary results
Procedure: Full-thickness tail skin was aseptically harvested from adult C57BL/6 mice.
The skin allografts were transplanted onto the flank of adult recipient BALB/c mice.
Engrafted mice were administered LLDT-8 daily or, as a control, phosphate-buffered saline (PBS) by intraperitoneal (i.p.) injection.

[3] = test system: P-388 (murine lymphoma cell); assay: Tumor cell proliferation, P-388; type: cell-based; conditions: read-out: Inhibitory effect on tumor cell proliferation IC50
[4] = test system: MCF-7 (human breast cancer cell); assay: Tumor cell proliferation, MCF-7; type: cell-based; conditions: read-out: Inhibitory effect on tumor cell proliferation IC50
mice [5] = assay: Acute toxicity (LD50) test in mice, oral; type: in vivo, mouse; conditions: single oral administration
Procedure: Mice were single administered with LLDT-8 by oral, and observed for clinical signs of toxicity immediately and the following 14 days. Necropsy was performed on all animals that died and on all survivors at the end of the 2-week study. Death was seen from the next day after treatment and reached a peak at the 2-3 day. […] There was no gender difference in survival.

[6] = test system: DNFB-induced mouse DTH response; assay: DNFB-induced mouse delayed type hypersensitivity response (DTH); type: in vivo
Procedure: Female Balb/c mice (age of 6-8 wk) were randomly divided into groups and immunized with 20 μl 0.5% DNFB solution in absolute acetone-olive oil (4:1) on each hind foot on day 0 and 1;
7-9 days after the initial immunization, mice were boosted with 10 μl 0.4% DNFB on both sides of the left ear, whereas the right ear was treated with vehicle alone;
Compounds were administered intraperitoneally (i.p.) or orally (p.o.) to the mice 1 h before DNFB booster immunization and 12 h later.
Ear swelling and other indexes were assessed 24-48 h after booster immunization.
Note: Female ICR mice (age of 6-8 wk) were immunized with 0.7% DNFB solution and boosted with 0.6% DNFB solution.

mice [7] = assay: Acute toxicity (LD50) test in mice, intraperitoneal injection; type: in vivo, mouse; conditions: single intraperitoneal injection
Procedure: Mice were single administered with LLDT-8 by intraperitoneal injection, and observed for clinical signs of toxicity immediately and the following 14 days. Necropsy was performed on all animals that died and on all survivors at the end of the 2-week study. Death was seen from the next day after treatment and reached a peak at the 2-4 day. All gross pathological changes should be recorded for each animal. There was no gender difference in survival.
LLDT-8 is much less toxic than its parent compound, […].

[8] = Table 5, i.p., dosage 1 mg/kg/d for 5 days, control 20

CC(C)[C@]12O[C@H]1[C@@H]1O[C@]13[C@]1(O[C@H]1C[C@@]1(O)C4=C(CC[C@]31C)C(=O)OC4)[C@@H]2O [LLDT-8, (5R)-5-hydroxytriptolide] was tested, and the “IC50 (concentration required to reduce the viability of cells by 50%)” value (lymphocyte) was 0.0782 µg/mL, the IC50 (lymphocyte; read-out: IC50 (concentration required to reduce the viability of cells by 50%)) was 208 nM and 200 nM and the IC50 [1] was 32 nM. The murine allograft survival [2] was “prolonged murine allograft survival”, the IC50 [3] was 80 nM and the IC50 [4] was 350 nM. The “LD50 95% confidence limits” value (mice [5]; mice) was 5.4 to 8.4 mg/kg, the LD50 (mice [5]; mice, 14 days, Bliss' method) was 6.8 mg/kg and the “gross pathology (hemorrhage)” value (mice [5]) was “Obvious hemorrhage was seen at pylorus, duodenum, jejunum and ileum”. The “pathological changes in tissues by gross necropsy in survivors at day 15” value (mice [5]) was “No significant pathological changes”, the “Body weight after i.p.” value [6, 8] was 21/21 g and the “Body weight before i.p.” value [6, 8] was 21/21 g. For the same compound, the Right ear ([6]; Table 5, i.p., dosage 1 mg/kg/d for 5 days, control 31.2) was 35.5 mg, the Ear swelling ([6]; Table 5, i.p., dosage 1 mg/kg/d for 5 days, control 32.6) was 21.4 mg and the Left ear ([6]; Table 5, i.p., dosage 1 mg/kg/d for 5 days, control 63.8) was 56.9 mg. It also gave a Spleen ([6]; Table 5, i.p., dosage 1 mg/kg/d for 5 days, control 142.4) of 140.3 mg, a Right ear ([6]; Table 6, i.p. once a day for 2 days, ICR mice, dosage 0.04 mg/kg, control 30.0) of 29.4 mg and an Ear swelling ([6]; Table 6, i.p. once a day for 2 days, ICR mice, dosage 0.04 mg/kg, control 31.1) of 26.1 mg. For the same compound, the Left ear ([6]; Table 6, i.p. once a day for 2 days, ICR mice, dosage 0.04 mg/kg, control 61.1) was 55.5 mg, the Right ear ([6]; Table 6, i.p. once a day for 2 days, ICR mice, dosage 0.2 mg/kg, control 30.0) was 37.4 mg and the Ear swelling ([6]; Table 6, i.p. once a day for 2 days, ICR mice, dosage 0.2 mg/kg, control 31.1) was 17.9 mg. It also gave a Left ear ([6]; Table 6, i.p. once a day for 2 days, ICR mice, dosage 0.2 mg/kg, control 61.1) of 55.3 mg, a Right ear ([6]; Table 6, i.p. once a day for 2 days, ICR mice, dosage 1 mg/kg, control 30.0) of 33.0 mg and an Ear swelling ([6]; Table 6, i.p. once a day for 2 days, ICR mice, dosage 1 mg/kg, control 31.1) of 23.4 mg. The Left ear ([6]; Table 6, i.p. once a day for 2 days, ICR mice, dosage 1 mg/kg, control 61.1) was 56.4 mg, the “Ear swelling X ± SD” value ([6]; Table 7, i.p. at low dosages, Balb/c mice, dosage 2 (mg/kg), control 23.3 ± 4.3) was 16.8 ± 5.4 mg and the Right ear ([6]; Table 7, i.p. at low dosages, Balb/c mice, dosage 2 (mg/kg), control 26.3) was 27.5 mg. The Left ear ([6]; Table 7, i.p. at low dosages, Balb/c mice, dosage 2 (mg/kg), control 49.6) was 44.3 mg, the “Ear swelling X ± SD” value ([6]; Table 7, i.p. at low dosages, Balb/c mice, dosage 8 (mg/kg), control 23.3 ± 4.3) was 16.6 ± 4.1 mg and the Right ear ([6]; Table 7, i.p. at low dosages, Balb/c mice, dosage 8 (mg/kg), control 26.3) was 29.7 mg. For the same compound, the Left ear ([6]; Table 7, i.p. at low dosages, Balb/c mice, dosage 8 (mg/kg), control 49.6) was 46.3 mg, the “Ear swelling X ± SD” value ([6]; Table 7, i.p. at low dosages, Balb/c mice, dosage 40 (mg/kg), control 23.3 ± 4.3) was 16.9 ± 2.7 mg and the Right ear ([6]; Table 7, i.p. at low dosages, Balb/c mice, dosage 40 (mg/kg), control 26.3) was 25.7 mg. For the same compound, the Left ear ([6]; Table 7, i.p. at low dosages, Balb/c mice, dosage 40 (mg/kg), control 49.6) was 42.6 mg, the “Ear swelling X ± SD” value ([6]; Table 7, i.p. at low dosages, Balb/c mice, dosage 200 (mg/kg), control 23.3 ± 4.3) was 17.1 ± 5.1 mg and the Right ear ([6]; Table 7, i.p. at low dosages, Balb/c mice, dosage 200 (mg/kg), control 26.3) was 27.2 mg. For the same compound, the Left ear ([6]; Table 7, i.p. at low dosages, Balb/c mice, dosage 200 (mg/kg), control 49.6) was 44.3 mg, the “Body weight after i.p.” value ([6]; Table 8, i.p., Balb/c mice, dosage 0.4 (mg/kg), control 21.9) was 22.6 g and the “Body weight before i.p.” value ([6]; Table 8, i.p., Balb/c mice, dosage 0.4 (mg/kg), control 22.4) was 22.3 g. The “Ear swelling X ± SD” value ([6]; Table 8, i.p., Balb/c mice, dosage 0.4 (mg/kg), control 22.7 ± 2.1) was 17.7 ± 4.7 mg, the Right ear ([6]; Table 8, i.p., Balb/c mice, dosage 0.4 (mg/kg), control 26.4) was 29.2 mg and the Left ear ([6]; Table 8, i.p., Balb/c mice, dosage 0.4 (mg/kg), control 49.1) was 47.0 mg. The Spleen ([6]; Table 8, i.p., Balb/c mice, dosage 0.4 (mg/kg), control 154.0) was 164.2 mg, the “Body weight after i.p.” value ([6]; Table 8, i.p., Balb/c mice, dosage 4 (mg/kg), control 21.9) was 21.8 g and the “Body weight before i.p.” value ([6]; Table 8, i.p., Balb/c mice, dosage 4 (mg/kg), control 22.4) was 21.4 g. The “Ear swelling X ± SD” value ([6]; Table 8, i.p., Balb/c mice, dosage 4 (mg/kg), control 22.7 ± 2.1) was 15.3 ± 4.7 mg, the Right ear ([6]; Table 8, i.p., Balb/c mice, dosage 4 (mg/kg), control 26.4) was 26.8 mg and the Left ear ([6]; Table 8, i.p., Balb/c mice, dosage 4 (mg/kg), control 49.1) was 42.1 mg. The Spleen ([6]; Table 8, i.p., Balb/c mice, dosage 4 (mg/kg), control 154.0) was 163.3 mg, the “Body weight after i.p.” value ([6]; Table 8, i.p., Balb/c mice, dosage 40 (mg/kg), control 21.9) was 21.4 g and the “Body weight before i.p.” value ([6]; Table 8, i.p., Balb/c mice, dosage 40 (mg/kg), control 22.4) was 21.6 g. The “Ear swelling X ± SD” value ([6]; Table 8, i.p., Balb/c mice, dosage 40 (mg/kg), control 22.7 ± 2.1) was 17.1 ± 4.9 mg, the Right ear ([6]; Table 8, i.p., Balb/c mice, dosage 40 (mg/kg), control 26.4) was 29.6 mg and the Left ear ([6]; Table 8, i.p., Balb/c mice, dosage 40 (mg/kg), control 49.1) was 46.7 mg. For the same compound, the Spleen ([6]; Table 8, i.p., Balb/c mice, dosage 40 (mg/kg), control 154.0) was 168.5 mg, the “Body weight after (i.p.)” value ([6]; Table 9, p.o., Balb/c mice, dosage 1 mg/kg/d for 2 days, control 19) was 21/21 g and the “Body weight before (i.p.)” value ([6]; Table 9, p.o., Balb/c mice, dosage 1 mg/kg/d for 2 days, control 20) was 21/21 g. For the same compound, the Ear swelling ([6]; Table 9, p.o., Balb/c mice, dosage 1 mg/kg/d for 2 days, control 23.4) was 13.1 mg, the Right ear ([6]; Table 9, p.o., Balb/c mice, dosage 1 mg/kg/d for 2 days, control 25.9) was 27.3 mg and the Left ear ([6]; Table 9, p.o., Balb/c mice, dosage 1 mg/kg/d for 2 days, control 49.3) was 40.4 mg. For the same compound, the Spleen ([6]; Table 9, p.o., Balb/c mice, dosage 1 mg/kg/d for 2 days, control 125.8) was 124.4 mg, the Right ear ([6]; Table 10, p.o., ICR mice, dosage 0.04 mg/kg, control 33.7) was 35.2 mg and the Ear swelling ([6]; Table 10, p.o., ICR mice, dosage 0.04 mg/kg, control 41.5) was 33.8 mg. For the same compound, the Left ear ([6]; Table 10, p.o., ICR mice, dosage 0.04 mg/kg, control 75.2) was 69.0 mg, the Right ear ([6]; Table 10, p.o., ICR mice, dosage 0.2 mg/kg, control 33.7) was 38.2 mg and the Ear swelling ([6]; Table 10, p.o., ICR mice, dosage 0.2 mg/kg, control 41.5) was 30.0 mg. For the same compound, the Left ear ([6]; Table 10, p.o., ICR mice, dosage 0.2 mg/kg, control 75.2) was 68.2 mg, the Right ear ([6]; Table 10, p.o., ICR mice, dosage 1 mg/kg, control 33.7) was 39.4 mg and the Ear swelling ([6]; Table 10, p.o., ICR mice, dosage 1 mg/kg, control 41.5) was 24.1 mg. For the same compound, the Left ear ([6]; Table 10, p.o., ICR mice, dosage 1 mg/kg, control 75.2) was 63.5 mg, the “LD50 95% confidence limits” value (mice [7]; mice) was 7.7 to 11.3 mg/kg and the LD50 (mice [7]; mice, 14 days, Bliss' method) was 9.3 mg/kg. For the same compound, the “pathological changes in tissues by gross necropsy in survivors at day 15” value (mice [7]) was “No significant pathological changes”.
